Values after ≈ are worked out from the molar mass of the structure shown. Like-named read-outs stand apart in the source and are kept apart here. Each block holds one compound with its values, some of them ahead of it.
What was measured:
Candida glabrata = experiment: Antifungal susceptibility testing, broth dilution (MIC/MFC); format: cell-based; details: Nakaseomyces glabratus; C. glabrata; read-out: MIC
Description: (§1) Specifically, disclosed compounds were evaluated alongside commercially available microtubulin inhibitors as well as recognized antifungal agents.
(§2) Microorganisms against which these compounds were tested included: Candida albicans, Candida glabrata, Aspergillus fumigatus, Trichophyton rubrum, Trichophyton mentagrophytes, Epidermophyton floccosum. With the exception of Candida glabrata (one isolate), two isolates of each species were tested.
(§3) The minimum lethal concentration (MLC) was determined by plating […] from the MIC concentration and each concentration above the MIC. […] When a MIC was obtained, a minimum fungicidal concentration (MFC) was determined to assess the fungistatic/fungicidal nature of the compound.

Candida albicans = experiment: as above; format: cell-based
Description: as §1, §2, §3

HuVEC = experiment: Action on microtubule function, α-tubulin staining; details: 2 μM, thirty minutes exposure
MAP-rich microtubules = experiment: Microtubule mean length distributions, transmission electron microscopy; format: biochemical, bovine; details: in words
Description: Transmission electron microscopy was used to determine the mean length distribution of microtubules in the absence or presence of tested agent. At 75 minutes and prior to sedimentation, 10 μl aliquots from the polymer mass experiments were fixed by dilution into 290 μl PEM100-buffered 0.2% glutaraldehyde. Thirty microliters of fixed sample was settled onto formvar-coated 150 ICG mesh electron microscope grids for 90 seconds. Excess sample was wicked off with Whatman filter paper. Thirty microliters of cytochrome C (1 mg/ml) was applied for 30 seconds to enhance protofilament resolution and facilitate negative staining. Uranyl acetate (1.5%) was applied for 20 seconds and the excess was wicked off Grids were viewed in a Jeol electron microscope-1200 EX11 at 2000× and 30,000× magnification. The Zeiss MOPIII was used to determine microtubule length distributions and mean lengths for at least 100 microtubules per sample.

Trichophyton rubrum = experiment: Antifungal susceptibility testing, broth dilution (MIC/MFC); format: cell-based; details: Trichophyton rubrum
Description: as §1, §2, §3

[1] = system: Trichophyton mentagrophytes; experiment: as above; format: cell-based; details: Trichophyton mentagrophytes
Description: (§4) Specifically, disclosed compounds were evaluated alongside commercially available microtubulin inhibitors as well as recognized antifungal agents. […].
as §2
(§5) Drug concentrations were 0.03-16 μg/ml for the investigational compounds, 0.015-8 μg/ml for itraconazole and griseofulvin.
as §3, with “compound. […] The compound is scored as fungistatic if the cells are able to resume growth and fungicidal if no regrowth is possible because the compound had killed the organisms.” for “compound.”

Epidermophyton floccosum = experiment: as above; format: cell-based
Description: as §4, §2, §5
as §3, with “compound. […] The compound is scored as fungistatic if the cells are able to resume growth and fungicidal if no regrowth is possible because the compound had killed the organisms.” for “compound.”

HT-29 cells = experiment: Additional cytotoxicity assays, resazurin (Table 3.1); format: cell-based, human; details: Table 3.1
Description: 10× concentrated serial dilutions of the two compounds were prepared in appropriate culture medium for final concentrations ranging from 2.0×10^−5 M to 2.0×10^−10 M. Ten μl volumes of the 10× serial dilutions were added to the test wells in triplicate and the plates returned to the incubator for 48 hours.
(§6) Following 48 hours of drug exposure 10 μl of 0.2 mg/ml resazurin (obtained from Sigma-Aldrich Chemical Co.) in Mg^2+, Ca^2+ free PBS was added to each well and the plates were returned to the incubator for 3-4 hours. […] Resazurin dye without cells was used to determine the background, which was subtracted from the data for all experimental wells. The data were analyzed using Prism software (GraphPad Software).
Additional cytotoxicity assays were performed as described above under this example, using Resazurin fluorescence as an indicator of cell viability.

[2] = system: MES-SA human uterine sarcoma; experiment: Cell growth inhibition assay, resazurin (Example 11); format: cell-based; details: mean ± standard deviation of three independent experiments
Description: (§7) Human uterine sarcoma (MES-SA; CRL-1976), its multidrug resistant derivative (MES-SA/Dx5; CRL-1977), human acute promyelocytic leukemia cells (HL-60; CCL-240) and its multidrug resistant derivative (HL-60/MX2; CRL-2257) were purchased from ATCC and maintained in appropriate culture media. The cells were cultured in an incubator at 37° C. in 5% CO2 and 95% humidified air.
(§8) For cell growth inhibition assays, MES-SA and MES-SA/Dx5 cells were both seeded at 3×10^3 cells/well in 90 μl complete media into 96 well (Corning; 3904) black-walled, clear-bottom tissue culture plates and the plates were incubated overnight to allow cells to establish and enter log phase growth. HL-60 and HL-60/MX2 cells were both seeded at 5×10^4 cells/well in 90 μl complete media into 96 well plates on the day of compound addition. 20 mM stock solutions of the compounds were prepared in 100% DMSO and stored at −80° C. […] Ten μl volumes of the 10× serial dilutions were added to the test wells in triplicate and the plates returned to the incubator for 48 hours. The final concentration of DMSO was 0.25% in all samples.
as §6, with “exposure,” for “exposure”, “phosphate buffered saline” for “PBS”, “3-6” for “3-4”, “dye in medium” for “dye”, “wells.” for “wells. The data were analyzed using Prism software (GraphPad Software).”
(§9) The multidrug resistant MES-SA/Dx5 tumor cell line was derived from the human uterine sarcoma MES-SA tumor cell line and expresses elevated P-Glycoprotein (P-gp), an ATP dependent efflux pump. The data in Table 19 summarize the growth inhibitory effects of NPI-2421, NPI-2463, NPI-2503, NPI-2504 and NPI-2506 against MES-SA and its multidrug resistant derivative MES-SA/Dx5. Paclitaxel, a known substrate of the P-gp pump was included as a control.

[3] = system: HL-60/MX2 multidrug resistant; experiment: as above; format: cell-based, human
Description: as §7, §8
as §6, with “exposure,” for “exposure”, “phosphate buffered saline” for “PBS”, “3-6” for “3-4”, “dye in medium” for “dye”, “wells.” for “wells. The data were analyzed using Prism software (GraphPad Software).”
(§10) HL-60/MX2 is a multidrug resistant tumor cell line derived from the human promyelocytic leukemia cell line, HL-60 and expresses reduced topoisomerase II activity. The data presented in Table 20 summarize the growth inhibitory effects of NPI-2421, NPI-2463, NPI-2503, NPI-2504 and NPI-2506 against HL-60 and its multidrug resistant derivative HL-60/MX2. Mitoxantrone, the topoisomerase II targeting agent was included as a control.

[4] = system: MES-SA/Dx5 multidrug resistant; experiment: as above; format: cell-based, human
Description: as §7, §8
as §6, with “exposure,” for “exposure”, “phosphate buffered saline” for “PBS”, “3-6” for “3-4”, “dye in medium” for “dye”, “wells.” for “wells. The data were analyzed using Prism software (GraphPad Software).”
as §9

[5] = system: HL-60 human acute promyelocytic leukemia cells; experiment: as above; format: cell-based; details: mean values of two independent experiments
Description: as §7, §8
as §6, with “exposure,” for “exposure”, “phosphate buffered saline” for “PBS”, “3-6” for “3-4”, “dye in medium” for “dye”, “wells.” for “wells. The data were analyzed using Prism software (GraphPad Software).”
as §10

[6] = system: HT-29 human colorectal carcinoma cells; experiment: Cell growth inhibition assay, resazurin (Table 3.2); format: cell-based; details: Table 3.2, HT-29 cells, read-out: EC50 (M) Mean
Method in brief: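 HT-29 cells seeded at 5×10^3/well overnight, then exposed in triplicate to compounds at final 20 μM to […] (0.25% DMSO) for 48 h at 37° C. Viability read by resazurin reduction after 3-4 h further incubation, with cell-free dye background subtracted.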

B16-F10 melanoma = experiment: Cell growth inhibition assay, resazurin (Example 11); format: cell-based; details: Mus musculus, 48 hours, mean ± SD where n ≧ 3
Description: (§11) The growth inhibitory activity of NPI-2421, NPI-2463, NPI-2503 and NPI-2504 were determined against selected human (colorectal adenocarcinoma, HT-29; breast adenocarcinoma, MDA-MB-231; non-small cell lung carcinoma, NCI-H292 and prostate carcinomas, PC-3 and DU 145) and mouse (melanoma, B16-F10) tumor cell lines.
(§12) HT-29 (HTB-38), MDA-MB-231 (HTB-26), NCI-H292 (CRL-1848), B16-F10 (CRL-6475), PC-3 (CRL-1435) and DU 145 (HTB-81) cells were all purchased from the ATCC. The cell lines were maintained in their respective ATCC recommended culture media and cultured in an incubator at 37° C. in 5% CO2 and 95% humidified air.
(§13) 20 mM stock solutions of compounds were prepared in 100% DMSO and stored at −80° C. 10× concentrated serial dilutions of the compounds were prepared in B16-F10 cell culture medium for final concentrations ranging from 20 μM to […]. Ten μl volumes of the 10× serial dilutions were added to the test wells in triplicate and the plates returned to the incubator for 48 hours. The final concentration of DMSO was 0.25% in all samples.
as §6, with “exposure,” for “exposure”, “phosphate buffered saline” for “PBS”, “3-6” for “3-4”, “dye in medium” for “dye”, “wells.” for “wells. The data were analyzed using Prism software (GraphPad Software).”

[7] = system: HT-29 colorectal adenocarcinoma; experiment: as above; format: cell-based; details: Homo sapiens, 48 hours, mean ± SD where n ≧ 3
Description: as §11, §12, §13
as §6, with “exposure,” for “exposure”, “phosphate buffered saline” for “PBS”, “3-6” for “3-4”, “dye in medium” for “dye”, “wells.” for “wells. The data were analyzed using Prism software (GraphPad Software).”

[8] = system: NCI-H292 non-small cell lung carcinoma; experiment: as above; format: cell-based; details: Homo sapiens, 48 hours, mean ± SD where n ≧ 3, ** n = 1
Description: as §11, §12, §13
as §6, with “exposure,” for “exposure”, “phosphate buffered saline” for “PBS”, “3-6” for “3-4”, “dye in medium” for “dye”, “wells.” for “wells. The data were analyzed using Prism software (GraphPad Software).”

PC-3 prostate carcinoma = experiment: as above; format: cell-based; details: Homo sapiens, 48 hours, mean ± SD where n ≧ 3, ** n = 1
Description: as §11, §12, §13
as §6, with “exposure,” for “exposure”, “phosphate buffered saline” for “PBS”, “3-6” for “3-4”, “dye in medium” for “dye”, “wells.” for “wells. The data were analyzed using Prism software (GraphPad Software).”

[9] = system: MDA-MB-231 breast adenocarcinoma; experiment: as above; format: cell-based; details: Homo sapiens, 48 hours, mean ± SD where n ≧ 3
Description: as §11, §12, §13
as §6, with “exposure,” for “exposure”, “phosphate buffered saline” for “PBS”, “3-6” for “3-4”, “dye in medium” for “dye”, “wells.” for “wells. The data were analyzed using Prism software (GraphPad Software).”

SMILES: COc1cc2c(c(OC)c1OC)-c1ccc(OC)c(=O)cc1[C@@H](NC(C)=O)CC2 [Colchicine]
MIC (Candida glabrata): > 128 µg/mL
MIC (Candida albicans; C. albicans 10231): >128 µg/mL
MIC (Candida albicans; Candida albicans, C. albicans 90028, read-out: MIC): > 128 µg/mL
microtubule depolymerization in HuVEC cells (HuVEC): induced microtubule depolymerization
MT nucleation (MAP-rich microtubules): did not affect MT nucleation

SMILES: CC(C)(C)c1[nH]cnc1/C=C1\NC(=O)[C@H](Cc2ccccc2)NC1=O [Compound 2460, (−)-tBu-PLH]
MFC (Trichophyton rubrum; T. rubrum isolate #1): 0.125 µg/mL (≈ 0.369 µM)
MIC (Trichophyton rubrum; T. rubrum isolate #1): < 0.03 µg/mL
MFC (Trichophyton rubrum; T. rubrum isolate #2): < 0.03 µg/mL
MIC (Trichophyton rubrum; T. rubrum isolate #2): < 0.03 µg/mL
MFC ([1]; T. mentagrophytes isolate #1): > 16 µg/mL
MIC ([1]; T. mentagrophytes isolate #1): 4 µg/mL (≈ 11.8 µM)
MIC ([1]; T. mentagrophytes isolate #2): > 16 µg/mL
MIC (Epidermophyton floccosum; E. floccosum isolate #1): > 16 µg/mL
MIC (Epidermophyton floccosum; E. floccosum isolate #2): > 16 µg/mL
EC50 (HT-29 cells; Homo sapiens, HT-29, read-out: EC50 (M) Mean): 2.55e-07 M
% cytotox Mean (HT-29 cells): 87%

EC50 [2]: 13 ± 3 nM
EC50 ([3]; Homo sapiens, HL60/MX2, HL-60/MX2, mean values of two independent experiments): 13 nM
EC50 [5]: 30 nM
EC50 [6]: 1.48e-08 M
EC50 (B16-F10 melanoma): 14 ± 3 nM
EC50 [7]: 11 nM
EC50 [8]: 42 nM
EC50 (PC-3 prostate carcinoma): > 2000 nM
EC50 [9]: 17 nM
SMILES: CC(C)(C)c1ocnc1/C=c1\[nH]c(=O)/c(=C/c2c(F)c(F)cc(F)c2F)[nH]c1=O [Compound 2504, tBu-oxadelta-PLH-2,3,5,6-tetrafluoro]
cytotoxic activity against both HL-60 and HL-60/MX2 ([3]; in words): retained cytotoxic activity
Fold change ([3]; ratio of EC50 values (HL-60/MX2:HL-60)): 0.4
EC50 ([4]; Homo sapiens, MES-SA/Dx5, mean ± standard deviation of three independent experiments): 14 ± 3 nM
cytotoxic activity against both MES-SA and MES-SA/Dx5 ([4]; in words): retained equivalent cytotoxic activity
Fold change ([4]; ratio of EC50 values (MES-SA/Dx5:MES-SA)): 1.1

Source: US8129527B2, “Analogs of dehydrophenylahistins and their therapeutic use” (Nereus Pharmacuticals, Inc., priority 2006, dated 2012)
